Data on three molecules can be found in article PMC8582287 (International journal of antimicrobial agents, 2020).

Entries after “also recorded” stand apart in the source; their conditions may differ. Like-named read-outs stand apart in the source and are kept apart here.

One data set concerns HepG2 (hepatocyte) cells. The data set is described as follows: Cytotoxicity in HepG2 cells, Alamar Blue. It is filed as cell-based, human. As to conditions: read-out: Cytotoxicity CC50 HEP-G2, 48h.
Data set [1] relates to CRL-8155 (lymphocyte) cells. The data set is described as follows: Cytotoxicity in CRL-8155 cells, Alamar Blue. As to conditions: read-out: Cytotoxicity CC50 CRL-8155, 48h. It is filed as cell-based, human. A general note: Resazurin is reduced to fluorescent resorufin, in cell work by metabolically active cells.
Data set [2] has as its system human foreskin fibroblasts (HFF). Put plainly: Cytotoxicity in human foreskin fibroblasts, Alamar blue. The settings on record: read-out: Cytotoxicity CC50 HFF, 3 days, 0.0009-20 μM. It is filed as cell-based.
The subject of data set [3] is zebrafish (Danio rerio) embryos. The data set is described as follows: Zebrafish embryo development test with impact score Si. As to conditions: for Embryo toxicity in the zebrafish assay (in words) / Lowest concentration exerting a negative Si: 0.2-50 μM; for Embryo toxicity in the zebrafish assay (in words): 96hpf; for Lowest concentration exerting a negative Si: zebrafish embryos, until 96h post fertilization; for Embryonal alterations observed during BKI-exposure: 24h, representative image. It is filed as in vivo.

Data set [4] has as its system pregnant BALB/c mice. The settings on record: mouse, in vivo, 50 mg/kg/day.
The test system of data set [5] is T. gondii oocyst infection. The settings on record: pregnant CD1 mice, ref [20]; cited from earlier work.
In data set [6] the test system is N. caninum tachyzoites. The settings on record: read-out: Proliferation EC50 N.caninum, ref [25]; cited from earlier work.
The test system of data set [7] is human Ether-à-go-go Related Gene (hERG). The settings on record: cited from earlier work.
Data set [8] concerns pregnant BALB/c mice. The data set is described as follows: Assessment of BKI-interference in pregnancy in non-infected mice. As to conditions: for Offspring mortality (dead/born pups): 50 mg/kg/day oral gavage for 5 days, follow-up 14 days.
Data set [9] has as its system N. caninum tachyzoites. As to conditions: read-out: Proliferation EC50 N.caninum.
A further data set concerns rats. The settings on record: when dosed in rats; no reference given; cited from earlier work.
Data set [10] has as its system Neospora-infected pregnant mice. As to conditions: 50mg/kg, ref [23]; cited from earlier work.
[11] abbreviates: 50 mg/kg/day oral gavage in corn oil for 5 days.

Usually CC50 stands for the concentration giving 50% cytotoxicity. Take `CCOc1ccc2cc(-c3nn(CC4CCN(C)CC4)c4ncnc(N)c34)ccc2c1` [BKI-1294]: the CC50 in the data set on HepG2 (hepatocyte) cells was more than 40 µM; in data set [1], more than 40 µM; in data set [2], more than 20 µM. In [3], the “Embryo toxicity in the zebrafish assay (in words)” value (shortened to “Embryo toxicity”) is listed as “very low embryo toxicity”. For the same molecule, the “Lowest concentration exerting a negative Si” value was not below 40 µM in data set [3] and 40 µM in data set [3] (listed as 1294). The “Overall number of pups born” value in the data set with pregnant BALB/c mice [4] is 27. Further, in the data set with pregnant BALB/c mice [4] (po), the Pups/dams is reported as 27/4. Also, the Offspring survival in data set [5] was 100%. The EC50 with N. caninum tachyzoites [6] is 0.04 µM. Further, the “hERG inhibition in vitro” value in [7] (ref [24]) is on record as “inhibited”. In addition, the “Offspring mortality (dead/born pups)” value in the data set on pregnant BALB/c mice [8] is on record as 0/27.

Regarding `CCOc1ccc2cc(-c3nn(CC4CCN(C)CC4)c4ncnc(N)c34)ccc2n1` [BKI-1369], the CC50 in the data set with HepG2 (hepatocyte) cells is more than 80 µM; in [1], more than 80 µM; in data set [2], more than 20 µM. Moreover, the “Embryo toxicity” value in data set [3] is listed as “very low embryo toxicity”. Besides, in the data set with N. caninum tachyzoites [9], the EC50 worked out at 0.035 µM. For the same molecule, the “Offspring mortality (dead/born pups)” value in the data set on pregnant BALB/c mice [8] is reported as 0/31. In the data set on pregnant BALB/c mice [8] (setting [11]), the “Fertility (pregnant/mated females)” value is reported as 5/6. Also, the Pups/dams in the data set on pregnant BALB/c mice [8] (setting [11]) is given as 31/5.

Take `CCOc1ccc2cc(-c3nn(C(C)(C)C)c(N)c3C(N)=O)cnc2c1` [BKI-1517]: the values for the CC50 (in the data set with HepG2 (hepatocyte) cells; in [1]; in data set [2]) were more than 40 µM, more than 40 µM and more than 20 µM, respectively. Also, the “Embryo toxicity” value in data set [3] is “high toxicity at all concentrations”. The “Embryonal alterations observed during BKI-exposure” value in data set [3] (20 μM) is reported as “tail curvature; also recorded: half-hatched embryo”; in data set [3] (50 μM) it was “pericardial edema”. For the same molecule, the “Lowest concentration exerting a negative Si” value was 0,2 μM in data set [3] (listed as 1517) and 0.2 µM in data set [3] (listed as -1517). For the same molecule, the EC50 in the data set with N. caninum tachyzoites [9] was 0.269 µM. In addition, in the data set with rats, the “Change in mean arterial pressure” value was “significant change in mean arterial pressure”. The “hERG inhibition in vitro” value in data set [7] (no reference given) is “did not inhibit”. The Neonatal mortality in [10] is 100%. In addition, the “Fertility (pregnant/mated females)” value with pregnant BALB/c mice [8] (setting [11]) was “^*2/7”.
